# Assay results reported in PubChem BioAssay (NCI).
#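 The compound was tested at five concentrations on cells cultured in 96-well plates, with a 48-hour exposure period. GI50 marks 50% less growth. TGI: total growth inhibition.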
# How the values were obtained:
# Experiment in all cases: NCI-60 cell line screen, 48 h
# EKVX NSCLC = system: EKVX NSCLC
# RXF 393 renal = system: RXF 393 renal
# SK-MEL-5 melanoma = system: SK-MEL-5 melanoma
# NCI/ADR-RES ovarian = system: NCI/ADR-RES ovarian
# SNB-75 CNS = system: SNB-75 CNS
# CAKI-1 renal = system: CAKI-1 renal
# SK-MEL-2 melanoma = system: SK-MEL-2 melanoma
# HT29 colon = system: HT29 colon
# K-562 leukemia = system: K-562 leukemia
# SF-268 CNS = system: SF-268 CNS
# UACC-257 melanoma = system: UACC-257 melanoma
# SW-620 colon = system: SW-620 colon
# HL-60(TB) leukemia = system: HL-60(TB) leukemia
# IGROV1 ovarian = system: IGROV1 ovarian
# MDA-MB-435 = system: MDA-MB-435
# U251 CNS = system: U251 CNS
# NCI-H226 lung = system: NCI-H226 lung
# MCF7 breast = system: MCF7 breast
# SK-MEL-28 melanoma = system: SK-MEL-28 melanoma
# OVCAR-5 ovarian = system: OVCAR-5 ovarian
# UACC-62 melanoma = system: UACC-62 melanoma
# T-47D breast = system: T-47D breast
# OVCAR-8 ovarian = system: OVCAR-8 ovarian
# DU-145 prostate = system: DU-145 prostate
# BT-549 breast = system: BT-549 breast
# SN12C renal = system: SN12C renal
# RPMI-8226 leukemia = system: RPMI-8226 leukemia
smiles,measurement,setting,value
Oc1cc2ccccc2cc1-c1n[nH]c(=S)n1CCc1ccccc1,GI50,EKVX NSCLC,33.7 µM
same,TGI,EKVX NSCLC,79.3 µM
same,GI50,RXF 393 renal,30.7 µM
same,TGI,RXF 393 renal,59 µM
same,GI50,SK-MEL-5 melanoma,19.4 µM
same,TGI,SK-MEL-5 melanoma,43.6 µM
same,GI50,NCI/ADR-RES ovarian,21.1 µM
same,TGI,NCI/ADR-RES ovarian,43.5 µM
same,GI50,SNB-75 CNS,73.2 µM
same,TGI,SNB-75 CNS,> 100 µM
same,GI50,CAKI-1 renal,30.9 µM
same,TGI,CAKI-1 renal,73.9 µM
same,GI50,SK-MEL-2 melanoma,16.3 µM
same,TGI,SK-MEL-2 melanoma,32.8 µM
same,GI50,HT29 colon,35.7 µM
same,TGI,HT29 colon,91.8 µM
same,GI50,K-562 leukemia,68.2 µM
same,TGI,K-562 leukemia,> 100 µM
same,GI50,SF-268 CNS,19.7 µM
same,TGI,SF-268 CNS,37.2 µM
same,GI50,UACC-257 melanoma,30 µM
same,TGI,UACC-257 melanoma,65.6 µM
same,GI50,SW-620 colon,36.2 µM
same,TGI,SW-620 colon,> 100 µM
same,GI50,HL-60(TB) leukemia,73.2 µM
same,TGI,HL-60(TB) leukemia,> 100 µM
same,GI50,IGROV1 ovarian,14.8 µM
same,TGI,IGROV1 ovarian,30.3 µM
same,GI50,MDA-MB-435,26.2 µM
same,TGI,MDA-MB-435,91.7 µM
same,GI50,U251 CNS,20.3 µM
same,TGI,U251 CNS,39 µM
same,GI50,NCI-H226 lung,19.9 µM
same,TGI,NCI-H226 lung,55.3 µM
same,GI50,MCF7 breast,22.5 µM
same,TGI,MCF7 breast,44.5 µM
same,GI50,SK-MEL-28 melanoma,44.8 µM
same,TGI,SK-MEL-28 melanoma,> 100 µM
same,GI50,OVCAR-5 ovarian,24.1 µM
same,TGI,OVCAR-5 ovarian,53.4 µM
same,GI50,UACC-62 melanoma,21.2 µM
same,TGI,UACC-62 melanoma,39.6 µM
same,GI50,T-47D breast,43.6 µM
same,TGI,T-47D breast,> 100 µM
same,GI50,OVCAR-8 ovarian,35.5 µM
same,TGI,OVCAR-8 ovarian,> 100 µM
same,GI50,DU-145 prostate,37.1 µM
same,TGI,DU-145 prostate,> 100 µM
same,GI50,BT-549 breast,18.6 µM
same,TGI,BT-549 breast,45.9 µM
same,GI50,SN12C renal,16.7 µM
same,TGI,SN12C renal,32.6 µM
same,GI50,RPMI-8226 leukemia,18.1 µM
